Reference: PubChem BioAssay AID1963867 (Molecular Pharmacology Branch, DTP, NCI, 2024)

Test system: KRAS-mutant PDC tumor spheroid with HUVEC/MSC, viability
Assay: Anticancer human tumor 327498-153-R-J2-PDC patient-derived uterine carcinosarcoma cell line growth inhibition [KRAS2]
Settings: for IC50: curve of first compound; for viability, T/C: stronger effect = lower value
Summary of the method: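 KRAS-mutant tumor cells were grown as spheroids with HUVEC endothelial cells and human MSCs as stroma. Targeted agents were tested alone and with KRAS pathway inhibitors. Doses started at or near clinical Cmax, or 10 microM, descending half-log.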

[1] = second compound 0.1 µM, first compound 0.0316 µM
[2] = second compound 0.1 µM, first compound 0.1 µM
[3] = second compound 0.1 µM, first compound 0.316 µM
[4] = second compound 0.1 µM, first compound 1 µM
[5] = second compound 0.1 µM, first compound 3.16 µM
[6] = second compound 0.316 µM, first compound 0.0316 µM
[7] = second compound 0.316 µM, first compound 0.1 µM
[8] = second compound 0.316 µM, first compound 0.316 µM
[9] = second compound 0.316 µM, first compound 1 µM
[10] = second compound 0.316 µM, first compound 3.16 µM
[11] = second compound 1 µM, first compound 0.0316 µM
[12] = second compound 1 µM, first compound 0.1 µM
[13] = second compound 1 µM, first compound 0.316 µM
[14] = second compound 1 µM, first compound 1 µM
[15] = second compound 1 µM, first compound 3.16 µM
[16] = second compound 3.16 µM, first compound 0.0316 µM
[17] = second compound 3.16 µM, first compound 0.1 µM
[18] = second compound 3.16 µM, first compound 0.316 µM
[19] = second compound 3.16 µM, first compound 1 µM
[20] = second compound 3.16 µM, first compound 3.16 µM
[21] = second compound 10 µM, first compound 0.0316 µM
[22] = second compound 10 µM, first compound 0.1 µM
[23] = second compound 10 µM, first compound 0.316 µM
[24] = second compound 10 µM, first compound 1 µM
[25] = second compound 10 µM, first compound 3.16 µM
[26] = second compound 0.1 µM, first compound 0.01 µM
[27] = second compound 0.316 µM, first compound 0.01 µM
[28] = second compound 1 µM, first compound 0.01 µM
[29] = second compound 3.16 µM, first compound 0.01 µM
[30] = second compound 10 µM, first compound 0.01 µM
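Further: spheroids exposed to agents for seven days before reading.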
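Wherever viability, T/C is given: 100% = DMSO vehicle wells so lower means fewer viable cells.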

Structure (SMILES) | IC50 (second compound 0.1 µM) | IC50 (second compound 0.316 µM) | IC50 (second compound 1 µM) | IC50 (second compound 3.16 µM) | IC50 (second compound 10 µM) | viability, T/C [1] | viability, T/C [2] | viability, T/C [3] | viability, T/C [4] | viability, T/C [5] | viability, T/C [6] | viability, T/C [7] | viability, T/C [8] | viability, T/C [9] | viability, T/C [11] | viability, T/C [12] | viability, T/C [16] | viability, T/C [17] | viability, T/C [21] | viability, T/C [22] | also measured
Cn1nccc1Nc1nccc(-c2cc3c(s2)C(C)(C)N(CCN2CCOCC2)C3=O)n1 + CNCc1ccccc1-c1csc(C(C)Nc2nc(C)nc3cc(OC)c(OC)cc23)c1 | 1640 nM | 1170 nM | 1030 nM | < 31.6 nM | < 31.6 nM | 73.9% | 76.8% | 64% | 55.7% | 43.5% | 77.7% | 62.6% | 64.6% | 50.2% | 62% | 62% | 0.13% | 0.11% | 0.14% | 0.68% | viability, T/C (second compound 0.1 µM, first compound 10 µM): 35.9%; viability, T/C [10]: 42.2%; viability, T/C (second compound 0.316 µM, first compound 10 µM): 32.5%; viability, T/C [13]: 58.6%; viability, T/C [14]: 48.2%; viability, T/C [15]: 41.3%; viability, T/C (second compound 1 µM, first compound 10 µM): 34.1%; viability, T/C [18]: 0.1%; viability, T/C [19]: 2.37%; viability, T/C [20]: 0.1%; viability, T/C (second compound 3.16 µM, first compound 10 µM): 0.18%; viability, T/C [23]: 0.13%; viability, T/C [24]: 0.38%; viability, T/C [25]: 0.22%; viability, T/C (second compound 10 µM, first compound 10 µM): 0.23%
CC(=O)OC12COC1CC(O)C1(C)C(=O)C(O)C3=C(C)C(OC(=O)C(O)C(NC(=O)OC(C)(C)C)c4ccccc4)CC(O)(C(OC(=O)c4ccccc4)C21)C3(C)C (stereo not given) + COc1cc2nc(C)nc(NC(C)c3cc(N)cc(C(F)(F)F)c3)c2cc1OC1CCOC1 | < 10 nM | < 10 nM | < 10 nM | < 10 nM | < 10 nM | 6.47% | 7.11% | 7.15% | 9.33% | 13.3% | 5.72% | 6.66% | 6.34% | 9.71% | 5.99% | 6.32% | 5.59% | 6.6% | 6.05% | 7.37% | viability, T/C [26]: 8.2%; viability, T/C [27]: 7.68%; viability, T/C [10]: 13.2%; viability, T/C [28]: 7.84%; viability, T/C [13]: 6.76%; viability, T/C [14]: 8.86%; viability, T/C [15]: 11.6%; viability, T/C [29]: 10.3%; viability, T/C [18]: 6.36%; viability, T/C [19]: 9.6%; viability, T/C [20]: 12.6%; viability, T/C [30]: 6.87%; viability, T/C [23]: 9.15%; viability, T/C [24]: 13.1%; viability, T/C [25]: 11.8%
CN(C)C/C=C/C(=O)Nc1cc2c(Nc3ccc(F)c(Cl)c3)ncnc2cc1O[C@H]1CCOC1 + COc1cc2nc(C)nc(NC(C)c3cc(N)cc(C(F)(F)F)c3)c2cc1OC1CCOC1 | > 100 nM | > 100 nM | > 100 nM | 16.2 nM | > 100 nM | 69.5% | 68.1% | – | – | – | 59.9% | 62.4% | – | – | 83.8% | 84.8% | 49.9% | 49.5% | 53.7% | 54.6% | viability, T/C (second compound 0.1 µM, first compound 0.000316 µM): 88.6%; viability, T/C (second compound 0.1 µM, first compound 0.001 µM): 84%; viability, T/C (second compound 0.1 µM, first compound 0.00316 µM): 75.2%; viability, T/C [26]: 76.7%; viability, T/C (second compound 0.316 µM, first compound 0.000316 µM): 72.5%; viability, T/C (second compound 0.316 µM, first compound 0.001 µM): 76%; viability, T/C (second compound 0.316 µM, first compound 0.00316 µM): 64%; viability, T/C [27]: 67.3%; viability, T/C (second compound 1 µM, first compound 0.000316 µM): 90.8%; viability, T/C (second compound 1 µM, first compound 0.001 µM): 85.1%; viability, T/C (second compound 1 µM, first compound 0.00316 µM): 88.1%; viability, T/C [28]: 86%; viability, T/C (second compound 3.16 µM, first compound 0.000316 µM): 60.9%; viability, T/C (second compound 3.16 µM, first compound 0.001 µM): 57.1%; viability, T/C (second compound 3.16 µM, first compound 0.00316 µM): 52.7%; viability, T/C [29]: 48.2%; viability, T/C (second compound 10 µM, first compound 0.000316 µM): 58.5%; viability, T/C (second compound 10 µM, first compound 0.001 µM): 56.7%; viability, T/C (second compound 10 µM, first compound 0.00316 µM): 49.8%; viability, T/C [30]: 49.3%
